Common to all, as to format: functional
Assay [1] concerns the target Death-associated protein kinase 3 (Homo sapiens, UniProt O43293).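 Note: measured as one member of a kinome-wide profiling panel.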
Assay [2] deals with Vascular endothelial growth factor receptor 2 (Homo sapiens, UniProt P35968).
The target of assay [3] is Serine/threonine-protein kinase PAK 4 (Homo sapiens, UniProt O96013).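 Note: value obtained within a kinome profiling panel in which PAK4 was one of the panel members.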
Assay [4] has as its target Receptor-type tyrosine-protein kinase FLT3 (Homo sapiens, UniProt P36888).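 Note: FLT3 was tested as one member of a kinome-wide kinase panel.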
In assay [5] the target is Fibroblast growth factor receptor 1 (Homo sapiens, UniProt P11362).
For assay [6], the target named is Serine/threonine-protein kinase D2 (Homo sapiens, UniProt Q9BZL6).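 Note: measured against PRKD2 as one member of a kinome-wide kinase profiling panel.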
For another assay, the target named is T1, Aurora kinase A (Homo sapiens, UniProt O14965).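 Note: value from the Navigating the Kinome kinase panel profiling, panel entry STK6.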
T1 sequence (O14965 whole entry): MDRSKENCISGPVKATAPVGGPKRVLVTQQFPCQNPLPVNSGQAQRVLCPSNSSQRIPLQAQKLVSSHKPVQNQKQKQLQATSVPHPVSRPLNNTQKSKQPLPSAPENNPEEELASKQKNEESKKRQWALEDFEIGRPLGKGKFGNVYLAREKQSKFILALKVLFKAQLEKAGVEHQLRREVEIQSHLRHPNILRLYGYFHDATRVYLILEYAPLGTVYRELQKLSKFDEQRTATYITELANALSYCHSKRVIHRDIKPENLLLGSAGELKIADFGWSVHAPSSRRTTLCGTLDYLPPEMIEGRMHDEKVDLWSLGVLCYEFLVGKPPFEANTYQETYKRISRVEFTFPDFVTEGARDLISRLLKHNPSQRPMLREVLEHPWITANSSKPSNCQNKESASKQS

The target of assay [7] is MAP kinase-activated protein kinase 3 (Homo sapiens, UniProt Q16644).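 Note: value comes from a kinome-wide profiling panel in which MAPKAPK3 is one of the panel members.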
The target of assay [8] is Mitogen-activated protein kinase 9 (Homo sapiens, UniProt P45984).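 Note: value from a kinome panel profiling assay, MAPK9 panel entry.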
In assay [9] the target is Calcium/calmodulin-dependent protein kinase type 1 (Homo sapiens, UniProt Q14012).
The target in assay [10] is Serine/threonine-protein kinase Nek2 (Homo sapiens, UniProt P51955).
For assay [11], the target named is Receptor tyrosine-protein kinase erbB-2 (Homo sapiens, UniProt P04626). The assay can be described thus: Navigating the Kinome. Panel member name: ERBB2.
Assay [12] has as its target Serine/threonine-protein kinase Chk1 (Homo sapiens, UniProt O14757).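 Note: measured as one member of a kinome-wide kinase profiling panel.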
The target in a further assay is Ephrin type-A receptor 2 (Homo sapiens, UniProt P29317).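 Note: EPHA2 tested as one member of a kinome-wide kinase panel.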
The target of assay [13] is Mast/stem cell growth factor receptor Kit (Homo sapiens, UniProt P10721).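 Note: KIT entry within a kinase panel assay.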
Assay [14] deals with Serine/threonine-protein kinase 3 (Homo sapiens, UniProt Q13188).
Assay [15] concerns the target Macrophage colony-stimulating factor 1 receptor (Homo sapiens, UniProt P07333).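 Note: value comes from the Navigating the Kinome screening panel, CSF1R member.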
The target in the next assay is Aurora kinase B (Homo sapiens, UniProt Q96GD4).
Assay [16] deals with MAP kinase-activated protein kinase 2 (Homo sapiens, UniProt P49137).
For assay [17], the target named is T2, Tyrosine-protein kinase JAK3 (Homo sapiens, UniProt P52333).
T2 sequence (P52333 whole entry): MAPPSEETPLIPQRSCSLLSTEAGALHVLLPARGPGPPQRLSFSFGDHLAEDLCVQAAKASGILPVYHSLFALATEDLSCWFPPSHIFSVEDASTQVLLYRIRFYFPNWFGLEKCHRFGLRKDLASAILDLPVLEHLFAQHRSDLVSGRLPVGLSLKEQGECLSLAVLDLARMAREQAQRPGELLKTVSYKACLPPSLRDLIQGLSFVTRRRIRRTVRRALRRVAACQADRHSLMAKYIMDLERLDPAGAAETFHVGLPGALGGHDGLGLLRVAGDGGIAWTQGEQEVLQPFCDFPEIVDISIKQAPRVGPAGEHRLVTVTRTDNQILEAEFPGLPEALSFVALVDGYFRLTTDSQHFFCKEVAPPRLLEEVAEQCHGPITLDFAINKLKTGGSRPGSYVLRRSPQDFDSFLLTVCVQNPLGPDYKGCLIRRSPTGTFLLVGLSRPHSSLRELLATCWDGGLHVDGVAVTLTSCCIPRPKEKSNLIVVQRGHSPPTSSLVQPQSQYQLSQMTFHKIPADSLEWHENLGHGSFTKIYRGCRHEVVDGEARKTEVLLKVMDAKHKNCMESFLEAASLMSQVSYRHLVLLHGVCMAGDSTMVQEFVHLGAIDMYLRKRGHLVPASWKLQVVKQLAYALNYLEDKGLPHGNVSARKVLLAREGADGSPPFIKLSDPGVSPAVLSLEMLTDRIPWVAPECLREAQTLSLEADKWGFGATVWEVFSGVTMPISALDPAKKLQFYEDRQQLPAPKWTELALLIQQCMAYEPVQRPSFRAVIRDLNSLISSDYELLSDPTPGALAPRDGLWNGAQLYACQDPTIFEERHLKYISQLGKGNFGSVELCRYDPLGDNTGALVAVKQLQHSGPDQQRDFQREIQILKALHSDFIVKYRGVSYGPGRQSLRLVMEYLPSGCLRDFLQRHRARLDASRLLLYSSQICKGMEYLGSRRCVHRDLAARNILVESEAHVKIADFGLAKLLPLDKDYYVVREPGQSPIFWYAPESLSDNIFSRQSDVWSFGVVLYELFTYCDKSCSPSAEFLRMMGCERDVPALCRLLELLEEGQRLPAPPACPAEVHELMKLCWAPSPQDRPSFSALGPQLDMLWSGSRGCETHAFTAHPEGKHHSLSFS

Assay [18] concerns the target Serine/threonine-protein kinase PAK 1 (Homo sapiens, UniProt Q13153).
Assay [19] concerns the target Casein kinase I isoform delta (Homo sapiens, UniProt P48730).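 Note: measured as one member (CSNK1D) of a kinome panel.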
In assay [20] the target is Receptor tyrosine-protein kinase erbB-4 (Homo sapiens, UniProt Q15303).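 Note: ERBB4 member of a kinome-wide kinase profiling panel.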
Assay [21] concerns the target Glycogen synthase kinase-3 beta (Homo sapiens, UniProt P49841).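 Note: value comes from a broad kinome profiling panel, with GSK3B as the panel member.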

Each structure is given as a SMILES string. Active and inactive are the calls of the source.

The term Ki denotes a dissociation constant, usually derived from enzyme kinetics or from competition with a known ligand.

Sequence of Serine/threonine-protein kinase PAK 1 (Q13153 whole entry, canonical isoform): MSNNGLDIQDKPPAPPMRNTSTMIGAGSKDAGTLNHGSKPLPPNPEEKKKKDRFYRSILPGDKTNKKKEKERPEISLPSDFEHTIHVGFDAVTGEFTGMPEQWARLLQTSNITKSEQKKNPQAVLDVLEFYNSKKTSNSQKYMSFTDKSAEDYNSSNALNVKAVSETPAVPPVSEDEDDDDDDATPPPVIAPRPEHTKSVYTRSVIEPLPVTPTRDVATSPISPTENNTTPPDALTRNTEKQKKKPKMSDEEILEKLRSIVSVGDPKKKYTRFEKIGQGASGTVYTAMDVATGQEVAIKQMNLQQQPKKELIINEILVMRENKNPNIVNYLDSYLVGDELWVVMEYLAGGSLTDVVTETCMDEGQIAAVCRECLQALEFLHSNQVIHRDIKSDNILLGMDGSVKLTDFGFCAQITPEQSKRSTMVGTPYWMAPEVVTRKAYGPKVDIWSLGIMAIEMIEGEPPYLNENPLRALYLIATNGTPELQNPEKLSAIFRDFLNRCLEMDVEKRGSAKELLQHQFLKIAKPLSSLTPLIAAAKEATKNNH
Sequence of Receptor tyrosine-protein kinase erbB-4 (Q15303 whole entry): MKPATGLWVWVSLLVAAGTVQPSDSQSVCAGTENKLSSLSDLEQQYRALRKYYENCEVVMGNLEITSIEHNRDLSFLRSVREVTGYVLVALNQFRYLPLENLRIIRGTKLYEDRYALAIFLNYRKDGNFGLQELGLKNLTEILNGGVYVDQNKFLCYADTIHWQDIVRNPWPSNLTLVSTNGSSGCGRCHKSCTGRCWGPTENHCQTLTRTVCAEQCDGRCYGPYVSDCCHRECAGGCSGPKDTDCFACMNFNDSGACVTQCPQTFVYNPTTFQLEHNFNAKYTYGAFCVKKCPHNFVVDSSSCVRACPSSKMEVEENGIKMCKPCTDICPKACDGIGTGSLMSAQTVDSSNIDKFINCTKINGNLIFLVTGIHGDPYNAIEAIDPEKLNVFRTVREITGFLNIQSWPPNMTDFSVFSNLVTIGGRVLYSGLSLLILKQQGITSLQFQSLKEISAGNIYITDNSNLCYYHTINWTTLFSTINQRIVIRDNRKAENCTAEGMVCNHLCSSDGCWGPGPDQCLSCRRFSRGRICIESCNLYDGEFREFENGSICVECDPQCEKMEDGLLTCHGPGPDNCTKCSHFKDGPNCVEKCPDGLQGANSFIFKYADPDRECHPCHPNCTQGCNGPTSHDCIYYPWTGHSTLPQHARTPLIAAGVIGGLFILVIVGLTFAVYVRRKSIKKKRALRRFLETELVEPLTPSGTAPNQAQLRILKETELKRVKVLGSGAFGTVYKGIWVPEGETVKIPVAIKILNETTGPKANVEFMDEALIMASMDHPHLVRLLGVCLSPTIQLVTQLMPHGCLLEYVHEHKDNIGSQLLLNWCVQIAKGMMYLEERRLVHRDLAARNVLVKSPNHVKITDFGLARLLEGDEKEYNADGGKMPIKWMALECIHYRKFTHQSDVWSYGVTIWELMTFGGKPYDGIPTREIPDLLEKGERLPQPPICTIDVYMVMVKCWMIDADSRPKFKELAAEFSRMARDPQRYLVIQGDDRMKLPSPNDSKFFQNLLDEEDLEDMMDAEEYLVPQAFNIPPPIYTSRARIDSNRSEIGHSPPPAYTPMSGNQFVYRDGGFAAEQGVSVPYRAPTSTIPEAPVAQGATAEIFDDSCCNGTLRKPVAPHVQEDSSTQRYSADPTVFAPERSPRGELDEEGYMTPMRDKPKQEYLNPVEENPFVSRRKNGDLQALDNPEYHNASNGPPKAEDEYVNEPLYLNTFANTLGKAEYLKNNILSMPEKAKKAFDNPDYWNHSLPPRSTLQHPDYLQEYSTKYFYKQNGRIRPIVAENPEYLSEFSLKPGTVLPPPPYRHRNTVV
Sequence of Mitogen-activated protein kinase 9 (P45984 whole entry): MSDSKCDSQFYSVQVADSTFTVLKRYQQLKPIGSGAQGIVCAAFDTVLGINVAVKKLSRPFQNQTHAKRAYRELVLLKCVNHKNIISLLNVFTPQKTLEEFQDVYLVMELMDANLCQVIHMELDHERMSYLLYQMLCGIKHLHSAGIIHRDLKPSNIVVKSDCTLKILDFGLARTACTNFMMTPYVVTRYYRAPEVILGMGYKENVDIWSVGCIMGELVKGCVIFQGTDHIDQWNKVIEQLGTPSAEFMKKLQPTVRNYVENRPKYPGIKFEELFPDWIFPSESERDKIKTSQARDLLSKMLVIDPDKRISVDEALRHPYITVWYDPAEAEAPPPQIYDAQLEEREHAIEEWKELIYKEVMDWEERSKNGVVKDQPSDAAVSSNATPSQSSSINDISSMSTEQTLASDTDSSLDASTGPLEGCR
Sequence of Macrophage colony-stimulating factor 1 receptor (P07333 whole entry): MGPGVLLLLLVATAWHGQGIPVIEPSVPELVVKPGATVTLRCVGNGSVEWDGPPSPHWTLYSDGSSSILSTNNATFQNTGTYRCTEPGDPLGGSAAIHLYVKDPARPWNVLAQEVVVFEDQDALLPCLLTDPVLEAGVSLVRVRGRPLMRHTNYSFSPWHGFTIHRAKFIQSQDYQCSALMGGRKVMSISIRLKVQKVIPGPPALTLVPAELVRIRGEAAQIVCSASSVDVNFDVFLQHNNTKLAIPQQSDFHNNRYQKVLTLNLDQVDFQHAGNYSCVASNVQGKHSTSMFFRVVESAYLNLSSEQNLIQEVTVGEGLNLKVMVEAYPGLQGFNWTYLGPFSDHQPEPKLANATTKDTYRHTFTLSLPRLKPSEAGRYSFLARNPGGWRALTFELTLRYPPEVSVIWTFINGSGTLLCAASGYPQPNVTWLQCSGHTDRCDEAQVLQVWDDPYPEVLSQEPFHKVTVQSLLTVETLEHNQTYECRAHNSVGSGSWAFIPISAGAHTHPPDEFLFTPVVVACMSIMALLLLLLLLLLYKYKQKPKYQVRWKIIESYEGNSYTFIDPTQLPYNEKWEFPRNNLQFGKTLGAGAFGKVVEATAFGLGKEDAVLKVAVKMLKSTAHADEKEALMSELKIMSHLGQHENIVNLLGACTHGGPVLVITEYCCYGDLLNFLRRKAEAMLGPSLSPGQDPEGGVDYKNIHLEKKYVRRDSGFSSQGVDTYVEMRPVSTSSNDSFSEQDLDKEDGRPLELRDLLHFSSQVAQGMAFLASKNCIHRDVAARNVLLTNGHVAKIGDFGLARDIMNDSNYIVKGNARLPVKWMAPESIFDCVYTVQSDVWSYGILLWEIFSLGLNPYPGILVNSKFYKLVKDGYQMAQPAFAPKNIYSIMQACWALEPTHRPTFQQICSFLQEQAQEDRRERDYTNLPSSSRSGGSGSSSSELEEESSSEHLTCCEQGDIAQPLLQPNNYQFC
Sequence of Ephrin type-A receptor 2 (P29317 whole entry): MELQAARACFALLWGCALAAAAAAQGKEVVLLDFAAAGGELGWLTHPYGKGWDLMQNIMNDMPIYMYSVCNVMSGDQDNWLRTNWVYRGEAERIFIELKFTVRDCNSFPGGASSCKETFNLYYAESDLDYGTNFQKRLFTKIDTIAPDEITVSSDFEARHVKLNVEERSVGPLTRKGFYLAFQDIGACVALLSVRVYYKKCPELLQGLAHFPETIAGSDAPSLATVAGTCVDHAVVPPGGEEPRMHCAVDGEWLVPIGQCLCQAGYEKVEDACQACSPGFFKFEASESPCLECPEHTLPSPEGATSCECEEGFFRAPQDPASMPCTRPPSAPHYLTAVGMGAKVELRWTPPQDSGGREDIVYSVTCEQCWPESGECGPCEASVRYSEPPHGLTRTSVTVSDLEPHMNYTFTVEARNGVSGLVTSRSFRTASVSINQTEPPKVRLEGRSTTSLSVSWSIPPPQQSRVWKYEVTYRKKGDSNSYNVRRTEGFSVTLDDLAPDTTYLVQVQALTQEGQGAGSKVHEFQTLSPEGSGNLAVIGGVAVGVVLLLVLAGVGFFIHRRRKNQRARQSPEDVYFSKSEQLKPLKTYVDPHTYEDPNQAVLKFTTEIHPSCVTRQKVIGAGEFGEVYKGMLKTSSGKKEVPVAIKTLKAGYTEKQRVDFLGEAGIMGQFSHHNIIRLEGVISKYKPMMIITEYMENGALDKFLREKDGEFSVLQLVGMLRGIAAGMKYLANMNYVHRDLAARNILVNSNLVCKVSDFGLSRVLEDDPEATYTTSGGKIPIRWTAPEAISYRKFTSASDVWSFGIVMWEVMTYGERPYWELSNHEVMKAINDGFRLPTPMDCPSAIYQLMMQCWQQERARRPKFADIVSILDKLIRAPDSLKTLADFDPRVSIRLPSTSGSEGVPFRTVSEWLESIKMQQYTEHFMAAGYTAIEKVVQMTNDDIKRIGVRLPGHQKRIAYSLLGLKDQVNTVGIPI
Sequence of Serine/threonine-protein kinase Nek2 (P51955 whole entry): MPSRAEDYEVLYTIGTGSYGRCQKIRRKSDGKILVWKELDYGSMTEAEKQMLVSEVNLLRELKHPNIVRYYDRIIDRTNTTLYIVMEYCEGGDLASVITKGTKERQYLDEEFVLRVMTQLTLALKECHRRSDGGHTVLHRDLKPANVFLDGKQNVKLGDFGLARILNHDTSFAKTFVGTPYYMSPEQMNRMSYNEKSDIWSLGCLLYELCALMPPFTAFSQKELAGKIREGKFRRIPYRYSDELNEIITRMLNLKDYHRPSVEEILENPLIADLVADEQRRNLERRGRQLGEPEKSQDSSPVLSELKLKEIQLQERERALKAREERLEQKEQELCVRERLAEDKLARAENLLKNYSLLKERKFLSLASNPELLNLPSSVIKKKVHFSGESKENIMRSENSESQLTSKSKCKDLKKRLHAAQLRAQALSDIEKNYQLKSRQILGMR
Sequence of MAP kinase-activated protein kinase 3 (Q16644 whole entry): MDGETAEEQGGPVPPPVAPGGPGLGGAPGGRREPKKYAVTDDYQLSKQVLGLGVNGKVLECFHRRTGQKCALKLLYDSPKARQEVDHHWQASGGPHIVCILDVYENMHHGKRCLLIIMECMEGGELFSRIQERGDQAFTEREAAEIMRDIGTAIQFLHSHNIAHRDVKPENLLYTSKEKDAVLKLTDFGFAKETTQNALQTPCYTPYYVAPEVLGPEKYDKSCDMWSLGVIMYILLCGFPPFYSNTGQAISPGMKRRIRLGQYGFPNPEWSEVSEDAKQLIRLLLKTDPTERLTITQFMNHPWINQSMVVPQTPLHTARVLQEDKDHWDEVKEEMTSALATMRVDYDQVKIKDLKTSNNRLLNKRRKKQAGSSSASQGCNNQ

On to `Cc1n[nH]c2cnc(-c3cncc(OCC(N)Cc4cccc(C(F)(F)F)c4)c3)cc12` (configuration not stated), for which the Ki in assay [1] is 0.00398 µM (active); in assay [2] it was > 7.94 µM (inactive); in [3], 0.398 µM (active); in assay [4], 1.58 µM (active); in assay [5], > 5.01 µM (inactive); in assay [6], 0.251 µM (active). In addition, the Ki on Aurora kinase A was > 1.58 µM (inactive); in [7] it was > 10 µM (inactive); in [8] it was > 3.98 µM (inactive); in [9], 0.501 µM (active); in [10], > 10 µM (inactive); in assay [11] it was > 1.58 µM (inactive). The Ki was 3.98 µM (active) in assay [12]; > 3.16 µM (inactive) on Ephrin type-A receptor 2; > 1.26 µM (inactive) in [13]; 0.0794 µM (active) in assay [14]; > 2.51 µM (inactive) in assay [15]; 3.16 µM (active) on Aurora kinase B. Besides, the inhibition constant (Ki) in assay [16] was 1.58 µM (active); in assay [17] it was 1.26 µM (active); in assay [18], 2 µM (active); in [19] it was 0.316 µM (active); in assay [20], > 3.98 µM (inactive).

Take `Cc1c(C=O)c(O)n2c(nc3ccccc32)c1C#N`: the inhibition constant Ki in [1] was 1 µM (active); in [2] it was > 7.94 µM (inactive); in assay [3], > 5.01 µM (inactive); in [4] it was 0.631 µM (active); in [5], > 5.01 µM (inactive); in assay [6], > 10 µM (inactive). In addition, the inhibition constant Ki at Aurora kinase A is 0.794 µM (active); in [7], > 10 µM (inactive); in assay [8], > 3.98 µM (inactive); in [9] it was > 7.94 µM (inactive); in assay [10] it was > 10 µM (inactive); in assay [11] it was > 1.58 µM (inactive). Moreover, the Ki was > 7.94 µM (inactive) in [12]; > 3.16 µM (inactive) at Ephrin type-A receptor 2; 3.16 µM (active) in assay [21]; > 1.26 µM (inactive) in assay [13]; 5.01 µM (active) in [14]; > 2.51 µM (inactive) in assay [15]. Also, the Ki on Aurora kinase B is 6.31 µM (active); in [16] it was > 7.94 µM (inactive); in [17], 0.1 µM (active); in [18], > 10 µM (inactive); in assay [19], 2 µM (active); in assay [20], > 3.98 µM (inactive).

(Values after ChEMBL document CHEMBL1201862, “PubChem BioAssay data set” (2004).)
